Data taken from patent US20200352889A1, “CYSTATHIONINE COMPOSITIONS AND METHODS OF TREATMENT FOR HEALTH CONDITIONS” (THE REGENTS OF THE UNIVERSITY OF COLORADO, A BODY CORPORATE, priority 2011, published 2020).
“Also recorded” adds a separate entry of the source.

Key:
hepatic CGL = conditions: I.P. injection; cited from earlier work
293AD cells = assay: Tunicamycin-induced cell death, LDH release and phase-contrast, 293AD cells; type: cell-based, human
Protocol: (§1) Cells were seeded in triplicate at ˜75% confluence and pre-treated with either PPG) (5 mM), Cystathionine (1 mM) or with just complete media (DMEM, 10% FBS) as a control. After 24 hr pre-treatment, cells looked normal, with minimal floating cells. Fresh media with 1% FBS was then added to each well, the cells were further treated with Tm (either 5 or 10 ug)/ml. After 18 hr. treatment with Tunicamycin, cells were photographed under phase-contrast with a Zeiss Axiovert 25 microscope for evidence of dead floating cells. Cells from the group treated solely with tunicamycin became strikingly hyper-refringent, detached from the substratum and floated in the media. […] To further evaluate a role for cystathionine in resisting the induction of cell death by tunicamycin, cell lysis was quantified by assaying lactate dehydrogenase (LDH) release. The enzyme activity was determined spectrophotometrically and the amount of enzyme leak was expressed as a percentage of the LDH activity observed in untreated control cells.
HepG2, 293AD and a23 cells were seeded in triplicate at ˜75% confluence and were pre-treated with either propargylglycine (PPG) (5 mM) or cystathionine (5 mM) in complete media (DMEM, 10% FBS). After 24 hours, fresh media with 1% FBS was added to each well. Cells were then further treated with tunicamycin (either 5 or 10 ug/ml) for 18 hr treatment. Cells were subsequently photographed under phase-contrast with a Zeiss Axiovert 25 microscope for evidence of dead floating cells. To quantify cell death the media supernatant was collected for LDH release assay using a kit from Roche Applied Science (Cat.No.11 644 793 001) according to the manufacturer's standard protocol where cytotoxicity (%)=((experimental value-low control/(high control-low control))×100.
as §1, with “24 hr.” for “24 hr”

CGL = molecular target: T1, CGL (Mus musculus, UniProt Q8VCN5); assay: Daily injection of PPG in WT mice, plasma cystathionine, Hcy, methionine and cysteine; type: in vivo
T1 construct: endogenous in cells; host or cells: C57BL/6J wild-type mice (whole animal, in vivo)
Protocol: It is believed that the longevity of this cystathionine accumulation with repeated injections of PPG over time in mice has not been properly examined. Consequently, daily injections of PPG were given to WT mice (n=7) each morning over a period of 4 days. Plasma samples were taken from these mice in the evening of each day by non-lethal tail bleed and the levels of cystathionine, Hcy, methionine and cysteine were determined (FIG. 4). Inactivation of CGL was observed and was accompanied by a 56-fold increase in the plasma level of cystathionine on day 1. […] Cysteine levels subsequently returned to near normal levels as the effects of the PPG treatment diminished.
Propensity for hepatic steatosis was examined in HO and wild type control mice using a methionine-choline deficient amino acid defined and iron supplemented diet (#518810 Dyets Inc., Bethlehem, Pa.)) and an isocaloric amino acid defined Lombardi choline sufficient diet with methionine control diet (518754, Dyets Inc., Bethlehem, Pa.) for 19 days as described previously (7). Experimental hypercystathionemia was induced by IP injection of the CGL inactivator PPG (50 mg·day-1·kg-1) as described previously (8). ER stress was induced in mice by a single IP injection with tunicamycin at 0.5 mg/kg body weight (volume <=1.0 ml). Control mice were sham treated by injection with an equal volume of PBS (9,10).
Determination of plasma levels of methionine cycle metabolites was performed as described previously (11).
Previous work by Abeles and Walsh synthesized and tested a range of acetylenic substrates capable of irreversible inactivation of CGL. […] For our purposes this method has the additional benefit of allowing us to investigate the possible protective effects of elevated cystathionine in isolation from its role as a cysteine donor. To our knowledge, the longevity of this cystathionine accumulation with repeated injections of PPG over time in mice has not been examined. Daily injections of PPG to WT mice were given (n=7) each morning over a period of 4 days. Plasma samples were taken from these mice in the evening of each day by non-lethal tail bleed and the levels of cystathionine, Hcy, methionine and cysteine were determined (FIG. 4). It was observed that inactivation of CGL was accompanied by a 56-fold increase in the plasma level of cystathionine on day 1. […] Cysteine levels subsequently returned to near normal levels as the effects of the PPG treatment diminished. These experiments allowed us to define an optimal time frame for examining the possible protective effects of PPG mediated cystathionine accumulation in WT mice. The effect of PPG on liver health was assessed by determining ALT values before PPG treatment and at each subsequent time point studied.

HepG2 cells = assay: Tunicamycin-induced cell death, LDH release, HepG2 cells; type: cell-based, human; conditions: data not shown
Protocol: as §1, with “control cells. […]” for “control cells.”
Cells were seeded in triplicate at ˜75% confluence and pre-treated with either PPG) (5 mM), Cystathionine (1 mM) or with just complete media (DMEM, 10% FBS) as a control. […] To further evaluate a role for cystathionine in resisting the induction of cell death by tunicamycin, cell lysis was quantified by assaying lactate dehydrogenase (LDH) release. […]

[1] = daily PPG IP, declined back to normal as PPG efficacy diminished

T1 sequence (Q8VCN5 whole entry): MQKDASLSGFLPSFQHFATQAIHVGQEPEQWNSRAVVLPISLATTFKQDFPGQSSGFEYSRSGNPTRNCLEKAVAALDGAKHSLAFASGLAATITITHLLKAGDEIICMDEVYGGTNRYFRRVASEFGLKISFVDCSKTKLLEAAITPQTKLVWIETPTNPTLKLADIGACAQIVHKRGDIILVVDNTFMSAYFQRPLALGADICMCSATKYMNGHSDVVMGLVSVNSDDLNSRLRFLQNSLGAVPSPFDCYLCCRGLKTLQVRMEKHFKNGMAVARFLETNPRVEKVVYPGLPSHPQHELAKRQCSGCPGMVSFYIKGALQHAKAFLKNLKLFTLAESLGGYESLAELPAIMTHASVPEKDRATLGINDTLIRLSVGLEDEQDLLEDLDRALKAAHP

SMILES: C#CCC(N)C(=O)O (racemic) [PPG, D,L-2-amino-4-pentynoic acid]
- duration of cystathionine accumulation (hepatic CGL): approximately one day
- inactivation of hepatic CGL activity (hepatic CGL): rapidly inactivate
- time to accumulation of cystathionine (hepatic CGL): within one hour
- prevention of tunicamycin-induced cell death (LDH release) (293AD cells; 293AD cells, tunicamycin 5 μg/ml 18 hr, 24 hr pre-treatment PPG 5 mM): largely prevented
- reduction in cell death (LDH release) (293AD cells; 293AD cells, tunicamycin 10 μg/ml 18 hr, 24 hr pre-treatment PPG 5 mM or cystathionine 1 mM, p<0.0001): 11 fold
- floating dead cells (phase-contrast) (293AD cells; tunicamycin 18 hr after PPG or cystathionine pre-treatment): No floating dead cells were observed; also recorded: not evident
- increase in the plasma level of cystathionine (CGL; daily PPG IP 50 mg/kg/day, day 1, vs untreated animals): 56 fold
- increase in the plasma level of cystathionine (CGL; daily PPG IP, day 3): 30 fold
- increase in the plasma level of cystathionine (CGL; daily PPG IP, day 4, vs untreated animals): 8 fold
- plasma methionine (CGL; [1]): relatively mild elevation
- plasma total Hcy (tHcy) (CGL; [1]): relatively mild elevation
- plasma cysteine levels (CGL; daily PPG IP, first and second days): concomitant decrease
- plasma cystathionine accumulation (CGL; daily PPG IP, second day): maximal accumulation persisted
- protection against tunicamycin-induced cell death compared with 293AD cells (HepG2 cells): Essentially identical results
